# According to US20150351390A1, “COMPOSITIONS AND METHODS FOR AUXIN-ANALOG CONJUGATION” (PIONEER HI-BRED INTERNATIONAL, INC., priority 2012, published 2015):
# Experiments:
# [1] = test system: wild-type Col-0 Arabidopsis; experiment: Root growth inhibition by 2,4-D, wild-type Arabidopsis; assay type: in vivo, Arabidopsis thaliana; details: Non transgenic (Col-0)
# Description: (§1) Seeds of Arabidopsis ecotype Columbia (Col-0) and GH3 transgenic events were surface sterilized with 70% (v/v) ethanol for 5 minutes and 10% (v/v) bleach for 15 minutes. After being washed three times with distilled water, the seeds were incubated at 4° C. for 4 days. The seeds were then germinated on 1× Murashige and Skoog (MS) medium with a pH of 5.7, 3% (w/v) sucrose, and 0.8% (w/v) agar. After incubation for 3.5 days, the seedlings were transferred to the basal medium containing B5 vitamin, 3% (w/v) sucrose, […] MES (pH 5.7), 1.2% (w/v) agar, and filter sterilized auxin herbicides 2,4-D or dicamba was added to the media at 60° C. The concentrations of 2,4-D were 0 μM, 0.1 μM, 0.5 μM, 0.7 μM, and 1.0 μM. The concentrations of dicmaba were 0 μM, 1.0 μM, 5.0 μM, 7.0 μM, and 10 μM. […]
# After 6 days on media with various concentrations of 2,4-D or dicamba, the length of the primary root was measured. […]
# Transgenic Arabidopsis lines overexpressing SEQ ID NO:3 were generated and evaluated for 2,4-D herbicide response as described in Example 5. […] Root length of 8 plants per transgenic line was measured and the average was compared to untreated seedlings within the same genetic background.
# [2] = test system: Transgenic Arabidopsis lines overexpressing SEQ ID NO:3; experiment: Root growth inhibition by 2,4-D, transgenic Arabidopsis; assay type: in vivo, Arabidopsis thaliana
# Description: Arabidopsis (Arabidopsis thaliana) expressing GH3 genes were produced using floral dip methods of Agrobacterium mediated transformation (Clough S J and Bent A F, 1998, Plant J. 16:735-43; Chung M. H., Chen M. K., Pan S. M. 2000. Transgenic Res. 9: 471-476; Weigel D. and Glazebrook J. 2006. In Planta Transformation of Arabidopsis. Cold Spring Harb. Protoc. 4668 3). Briefly, Arabidopsis (Col-0) plants were grown in soil in pots. The first inflorescence shoots were removed as soon as they emerged. Plants were ready for transformation when the secondary inflorescence shoots were about 3 inches tall. Agrobacterium carrying a suitable binary vector were cultured in 5 mL LB medium at 28° C. with shaking at 200 rpm for two days. 1 mL of the culture was then inoculated into 200 ml fresh LB media and incubated again with vigorous agitation for an additional 20-24 hours at 28° C. The Agrobacterium culture was then subjected to centrifugation at 6000 rpm in a GSA rotor (or equivalent) for 10 minutes. The pellet was resuspended in 20-100 mL of spraying medium containing 5% (wt/v) sucrose and 0.01-0.2% (v/v) Silwet L-77. The Agrobacterium suspension was transferred into a hand-held sprayer for spraying onto inflorescences of the transformation-ready Arabidopsis plants. The sprayed plants were covered with a humidity dome for 24 hours before the cover was removed for growth under normal growing conditions. Seeds were harvested. Screening of transformants was performed under sterile conditions. Surface sterilized seeds were placed onto MS-Agar plates (Phyto Technology labs Prod. No. M519) containing appropriate selective antibiotics (kanamycin 50 mg/L, hygromycin 20 mg/L, or bialaphos 10 mg/L). Anti-Agrobacteirum antibiotic timentin was also included in the media. Plates were cultured at 21° C. at 16 hr light for 7-14 days. Transgenic events harboring GH3 genes were germinated and transferred to soil pots in the greenhouse for evaluation of herbicide tolerance.
# A selectable marker gene used to facilitate Arabidopsis transformation was a chimeric gene composed of the 35S promoter from Cauliflower Mosaic Virus (Odell et al. 1985. Nature 313:810-812), the bar gene from Streptomyces hygroscopicus (Thompson et al., 1987. EMBO J. 6:2519-2523), and the 3′UBQ14 terminator region from Arabidopsis (Callis et al., 1995. Genetics 139 (2), 921-939). Another visual selectable marker gene used to facilitate Arabidopsis transformation was a chimeric gene composed of the UBQ promoter from soybean (Xing et al., 2010. Plant Biotechnology Journal 8:772-782), the YFP coding sequence, and the 3′ region of the nopaline synthase gene from the T-DNA of the Ti plasmid of Agrobacterium tumefaciens. Bialophos was used as the selection agent during the transformation process. GH3 genes were expressed with a constitutive promoter, for example, the Arabidopsis UBQ10 promoter (Norris et al., 1993. Plant Mol Biol 21:895-906) or UBQ3 promoter (Norris et al., 1993. Plant Mol Biol 21:895-906) for strong or moderate expression, a GH3 coding sequence, and the 3′ terminator region of the French bean phaseolin gene (Sun et al., 1981. Nature 289:37-41; Slightom et al., 1983. Proc. Natl. Acad. Sci. U.S.A. 80 (7), 1897-1901)
# as §1, with “The concentrations of 2,4-D were 0 μM, 0.1 μM, 0.5 μM, 0.7 μM, and 1.0 μM.” left out
structure (smiles),measurement,setting,value
"O=C(O)COc1ccc(Cl)cc1Cl [2,4-D, 2,4-dichlorophenoxyacetic acid]","Percentage of the average root length compared with 0 nM 2,4-D treatment","[1]; 10 nM 2,4-D",77%
same,"Percentage of the average root length compared with 0 nM 2,4-D treatment","[1]; 100 nM 2,4-D",58%
same,"Percentage of the average root length compared with 0 nM 2,4-D treatment","[2]; Line #1, 10 nM 2,4-D",80%
same,"Percentage of the average root length compared with 0 nM 2,4-D treatment","[2]; Line #1, 100 nM 2,4-D",43%
same,"Percentage of the average root length compared with 0 nM 2,4-D treatment","[2]; Line #2, 10 nM 2,4-D",83%
same,"Percentage of the average root length compared with 0 nM 2,4-D treatment","[2]; Line #2, 100 nM 2,4-D",36%
same,"Percentage of the average root length compared with 0 nM 2,4-D treatment","[2]; Line #3, 10 nM 2,4-D",88%
same,"Percentage of the average root length compared with 0 nM 2,4-D treatment","[2]; Line #3, 100 nM 2,4-D",63%
same,"Percentage of the average root length compared with 0 nM 2,4-D treatment","[2]; Line #4, 10 nM 2,4-D",101%
same,"Percentage of the average root length compared with 0 nM 2,4-D treatment","[2]; Line #4, 100 nM 2,4-D",60%
same,"Percentage of the average root length compared with 0 nM 2,4-D treatment","[2]; Line #5, 10 nM 2,4-D",76%
same,"Percentage of the average root length compared with 0 nM 2,4-D treatment","[2]; Line #5, 100 nM 2,4-D",50%
same,"Inhibition of root growth by 2,4-D","[2]; transgenic line #4, 10 nM 2,4-D, result in words",completely alleviated
